# Measured values: ChEMBL document CHEMBL4828715, “Discovery, Structure-Activity Relationships, and In Vivo Evaluation of Novel Aryl Amides as Brain Penetrant Adaptor Protein 2-Associated Kinase 1 (AAK1) Inhibitors for the Treatment of Neuropathic Pain” (J Med Chem, 2021)
# Calls of active or inactive are those of the source. The rule behind the calls is not given here.
# How the values were obtained:
# [1] = Drug concentration in plasma of Sprague-Dawley rat model of chronic constriction injury-induced neuropathic pain at 30 mg/kg, sc; format: ADME, organism-based; details: in vivo
# [2] = biological target: Kappa-type opioid receptor (Homo sapiens, UniProt P41145); assay: Inhibition of kappa opioid receptor (unknown origin)
# [3] = biological target: Cyclin-G-associated kinase (Homo sapiens) (UniProt O14976); assay: Inhibition of wild-type human partial length GAK (G13 to Y338 residues) expressed in bacterial expression system assessed as residual binding level at 1 uM by Kinomescan method relative to control
# Rattus norvegicus [4] = assay: Antinociceptive activity in Sprague-Dawley rat model of chronic constriction injury-induced neuropathic pain assessed as reduction in thermal hyperalgesia 30 mg/kg, sc by Von Frey test relative to control; format: functional; design: scale not given: the % may be the effect or the level left
# Mus musculus [5] = assay: Antinociceptive activity against formalin-induced nociceptive behavior in C57BL6 mouse assessed as reduction in phase 1 hind paw flinching at 30 mg/kg, sc administered 60 mins prior to formalin challenge by formalin test; format: functional, organism-based
# [6] = biological target: Dual specificity protein kinase CLK4 (Homo sapiens, UniProt Q9HAZ1); assay: Inhibition of wild-type human partial length CLK4 (R135 to K481 residues) expressed in bacterial expression system by Kinomescan method
# [7] = Metabolic stability in rat liver microsomes assessed as parent compound remaining at 0.5 uM incubated for 10 mins in presence of NADPH by LC-MS/MS analysis; format: ADME, Microsome; details: read-out: Stability
# [8] = Permeability of the compound across basolateral to apical membrane in human Caco-2 cells incubated for 2 hrs by LC-MS/MS analysis; format: ADME, cell-based; details: caco-2, 2 h
# [9] = Unbound drug concentration in plasma of Sprague-Dawley rat model of chronic constriction injury-induced neuropathic pain at 1 mg/kg, sc; format: ADME, organism-based; details: in vivo
# Rattus norvegicus [10] = assay: Reversal of chronic constriction injury-induced cold allodynia in Sprague-Dawley rat model of neuropathic pain at 60 mg/kg, sc measured up to 180 mins relative to control; format: functional; details: time min <=180
# [11] = biological target: Phosphatidylinositol 5-phosphate 4-kinase type-2 beta (Homo sapiens) (UniProt P78356); assay: Inhibition of wild-type human full length PIP5K2B (M1 to T416 residues) expressed in bacterial expression system assessed as residual binding level at 1 uM by Kinomescan method relative to control
# Rattus norvegicus [12] = assay: Reversal of chronic constriction injury-induced mechanical allodynia in Sprague-Dawley rat model of neuropathic pain at 60 mg/kg, sc measured up to 180 mins relative to control; format: functional; details: time min <=180
# [13] = Drug concentration in C57BL6 mouse brain at 10 ml/kg, sc measured after 2 hrs by LC-MS/MS analysis; format: ADME, organism-based; details: read-out: Ct
# [14] = biological target: AP2-associated protein kinase 1 (Mus musculus) (UniProt Q3UHJ0); assay: In vivo inhibition of AAK1 in C57BL6 mouse assessed as suppression of mu2 phosphorylation in brain lysate at 30 mg/kg, sc measured after 2 hrs by Western blot analysis; format: functional, organism-based
# [15] = biological target: cAMP-dependent protein kinase catalytic subunit PRKX (Homo sapiens, UniProt P51817); assay: Inhibition of wild-type human partial length PRKX (M1 to F358 residues) expressed in bacterial expression system by Kinomescan method
# [16] = biological target: T1, MAP kinase-interacting serine/threonine-protein kinase 1 (Homo sapiens, UniProt Q9BUB5); assay: Inhibition of wild-type human full length MKNK1 (M1 to L424 residues) expressed in mammalian expression system by Kinomescan method
# Target sequence in this assay (Q9BUB5 whole entry, the tested form may be a part): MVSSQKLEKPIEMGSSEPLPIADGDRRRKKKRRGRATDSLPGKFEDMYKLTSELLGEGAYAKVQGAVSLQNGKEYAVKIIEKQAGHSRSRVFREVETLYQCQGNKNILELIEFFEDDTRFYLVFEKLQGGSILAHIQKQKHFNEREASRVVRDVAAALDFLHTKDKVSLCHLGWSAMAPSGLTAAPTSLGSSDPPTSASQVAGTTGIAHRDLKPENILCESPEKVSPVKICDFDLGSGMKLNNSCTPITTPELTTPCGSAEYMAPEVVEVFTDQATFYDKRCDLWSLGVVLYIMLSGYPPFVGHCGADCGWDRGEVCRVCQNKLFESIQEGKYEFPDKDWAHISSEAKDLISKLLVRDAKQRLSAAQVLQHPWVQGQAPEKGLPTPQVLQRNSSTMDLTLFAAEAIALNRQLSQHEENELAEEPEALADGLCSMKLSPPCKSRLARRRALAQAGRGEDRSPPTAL
# Mus musculus [17] = assay: Antinociceptive activity against formalin-induced nociceptive behavior in C57BL6 mouse assessed as reduction in phase 2 hind paw flinching at 30 mg/kg, sc administered 60 mins prior to formalin challenge by formalin test; format: functional, organism-based
# [18] = biological target: T1, MAP kinase-interacting serine/threonine-protein kinase 1; assay: Inhibition of wild-type human full length MKNK1 (M1 to L424 residues) expressed in mammalian expression system assessed as residual binding level at 1 uM by Kinomescan method relative to control
# Target sequence in this assay (Q9BUB5 whole entry, looked up, the tested form may be a part): as the sequence (Q9BUB5 whole entry, the tested form may be a part) above
# cAMP-dependent protein kinase catalytic subunit PRKX, sequence (P51817 whole entry, the tested form may be a part): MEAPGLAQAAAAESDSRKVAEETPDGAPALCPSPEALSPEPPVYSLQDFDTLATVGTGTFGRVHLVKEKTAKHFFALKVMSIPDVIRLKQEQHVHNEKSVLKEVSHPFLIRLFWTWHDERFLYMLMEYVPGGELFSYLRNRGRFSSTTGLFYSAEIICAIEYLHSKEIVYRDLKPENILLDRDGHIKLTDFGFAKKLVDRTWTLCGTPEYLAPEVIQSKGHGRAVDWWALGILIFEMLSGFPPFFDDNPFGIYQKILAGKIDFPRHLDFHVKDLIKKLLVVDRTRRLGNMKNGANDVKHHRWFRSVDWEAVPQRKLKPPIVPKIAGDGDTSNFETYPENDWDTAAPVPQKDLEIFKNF
# Phosphatidylinositol 5-phosphate 4-kinase type-2 beta (Homo sapiens), sequence (P78356 whole entry, the tested form may be a part): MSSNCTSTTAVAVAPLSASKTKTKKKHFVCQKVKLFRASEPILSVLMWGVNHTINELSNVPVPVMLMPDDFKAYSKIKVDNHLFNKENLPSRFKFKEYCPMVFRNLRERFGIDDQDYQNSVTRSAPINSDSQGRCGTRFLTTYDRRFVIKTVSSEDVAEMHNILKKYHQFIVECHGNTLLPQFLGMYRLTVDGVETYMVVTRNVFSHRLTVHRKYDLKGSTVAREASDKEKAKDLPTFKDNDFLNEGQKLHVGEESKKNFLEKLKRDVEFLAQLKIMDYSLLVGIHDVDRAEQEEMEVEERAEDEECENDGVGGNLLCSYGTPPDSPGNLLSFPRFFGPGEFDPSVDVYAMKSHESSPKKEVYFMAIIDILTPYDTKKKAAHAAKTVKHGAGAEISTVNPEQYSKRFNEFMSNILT
# Dual specificity protein kinase CLK4, sequence (Q9HAZ1 whole entry, the tested form may be a part): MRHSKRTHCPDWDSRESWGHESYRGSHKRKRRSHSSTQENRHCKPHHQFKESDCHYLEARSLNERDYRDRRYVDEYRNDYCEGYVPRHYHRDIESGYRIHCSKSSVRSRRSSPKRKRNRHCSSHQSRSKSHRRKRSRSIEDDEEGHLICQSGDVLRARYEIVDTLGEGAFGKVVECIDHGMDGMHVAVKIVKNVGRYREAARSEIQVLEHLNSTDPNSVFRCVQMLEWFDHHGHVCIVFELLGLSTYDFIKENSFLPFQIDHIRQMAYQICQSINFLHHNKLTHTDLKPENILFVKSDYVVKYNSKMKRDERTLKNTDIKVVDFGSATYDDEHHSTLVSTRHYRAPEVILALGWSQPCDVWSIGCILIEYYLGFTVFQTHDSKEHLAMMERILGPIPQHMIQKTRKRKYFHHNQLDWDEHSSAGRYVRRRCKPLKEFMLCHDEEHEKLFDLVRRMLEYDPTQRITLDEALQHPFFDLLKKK
# Cyclin-G-associated kinase (Homo sapiens), sequence (O14976 whole entry, the tested form may be a part): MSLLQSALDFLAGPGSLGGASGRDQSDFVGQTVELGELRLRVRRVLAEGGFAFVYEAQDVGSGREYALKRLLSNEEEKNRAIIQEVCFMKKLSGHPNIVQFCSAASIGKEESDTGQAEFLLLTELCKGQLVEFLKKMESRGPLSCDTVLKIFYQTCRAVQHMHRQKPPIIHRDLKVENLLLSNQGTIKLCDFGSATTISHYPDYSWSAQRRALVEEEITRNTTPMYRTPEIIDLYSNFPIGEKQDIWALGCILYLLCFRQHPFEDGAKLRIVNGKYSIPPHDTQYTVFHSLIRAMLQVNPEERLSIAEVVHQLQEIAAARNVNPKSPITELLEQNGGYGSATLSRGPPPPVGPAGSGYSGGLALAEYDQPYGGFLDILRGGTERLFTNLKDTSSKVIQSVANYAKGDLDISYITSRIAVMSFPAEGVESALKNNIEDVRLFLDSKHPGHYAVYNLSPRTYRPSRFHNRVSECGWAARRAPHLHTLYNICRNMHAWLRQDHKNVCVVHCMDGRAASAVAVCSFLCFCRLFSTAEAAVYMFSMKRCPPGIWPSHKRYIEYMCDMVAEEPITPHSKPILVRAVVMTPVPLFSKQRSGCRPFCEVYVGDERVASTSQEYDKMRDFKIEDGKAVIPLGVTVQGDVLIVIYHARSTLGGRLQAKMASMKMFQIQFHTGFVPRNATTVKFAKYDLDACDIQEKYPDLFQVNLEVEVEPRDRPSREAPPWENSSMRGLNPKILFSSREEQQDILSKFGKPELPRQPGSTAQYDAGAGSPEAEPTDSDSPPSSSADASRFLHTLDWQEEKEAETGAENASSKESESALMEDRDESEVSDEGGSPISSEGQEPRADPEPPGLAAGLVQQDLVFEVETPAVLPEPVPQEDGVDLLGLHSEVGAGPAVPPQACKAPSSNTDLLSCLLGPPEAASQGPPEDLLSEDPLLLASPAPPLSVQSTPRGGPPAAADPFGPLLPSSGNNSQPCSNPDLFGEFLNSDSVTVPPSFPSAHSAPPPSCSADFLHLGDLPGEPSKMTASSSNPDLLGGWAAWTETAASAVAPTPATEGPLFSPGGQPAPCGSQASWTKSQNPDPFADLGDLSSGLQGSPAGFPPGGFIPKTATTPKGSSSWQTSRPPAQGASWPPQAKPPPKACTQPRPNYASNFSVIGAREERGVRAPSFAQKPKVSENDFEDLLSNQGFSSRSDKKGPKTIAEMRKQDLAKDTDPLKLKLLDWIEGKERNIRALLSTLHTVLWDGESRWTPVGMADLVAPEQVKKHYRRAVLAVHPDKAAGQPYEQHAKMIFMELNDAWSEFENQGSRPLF
# AP2-associated protein kinase 1 (Mus musculus), sequence (Q3UHJ0 whole entry, looked up, the tested form may be a part): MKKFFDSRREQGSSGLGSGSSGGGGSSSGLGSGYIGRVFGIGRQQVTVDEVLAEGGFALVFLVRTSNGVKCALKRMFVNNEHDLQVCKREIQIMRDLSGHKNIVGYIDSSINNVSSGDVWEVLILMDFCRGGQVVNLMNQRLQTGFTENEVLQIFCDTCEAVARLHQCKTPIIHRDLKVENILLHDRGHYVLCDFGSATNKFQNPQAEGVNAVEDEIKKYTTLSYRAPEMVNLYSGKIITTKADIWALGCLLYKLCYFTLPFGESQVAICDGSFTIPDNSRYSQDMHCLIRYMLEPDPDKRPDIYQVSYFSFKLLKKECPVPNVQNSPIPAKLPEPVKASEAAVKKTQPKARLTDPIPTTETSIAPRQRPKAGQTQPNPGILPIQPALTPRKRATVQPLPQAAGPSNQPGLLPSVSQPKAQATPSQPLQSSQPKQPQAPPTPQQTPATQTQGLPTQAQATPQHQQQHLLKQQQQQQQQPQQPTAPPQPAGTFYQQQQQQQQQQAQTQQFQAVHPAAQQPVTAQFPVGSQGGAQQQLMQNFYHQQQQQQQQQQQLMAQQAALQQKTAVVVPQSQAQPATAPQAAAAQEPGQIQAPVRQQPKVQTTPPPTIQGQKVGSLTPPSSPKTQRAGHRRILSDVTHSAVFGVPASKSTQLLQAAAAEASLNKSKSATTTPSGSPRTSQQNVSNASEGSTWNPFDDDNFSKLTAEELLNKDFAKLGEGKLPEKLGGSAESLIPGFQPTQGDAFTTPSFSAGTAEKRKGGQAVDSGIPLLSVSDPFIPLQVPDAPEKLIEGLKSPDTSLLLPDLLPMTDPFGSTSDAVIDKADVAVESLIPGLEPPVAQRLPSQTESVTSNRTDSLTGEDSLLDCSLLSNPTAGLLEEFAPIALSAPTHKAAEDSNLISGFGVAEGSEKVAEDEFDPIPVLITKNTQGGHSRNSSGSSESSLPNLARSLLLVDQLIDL
# Kappa-type opioid receptor, sequence (P41145 whole entry, the tested form may be a part): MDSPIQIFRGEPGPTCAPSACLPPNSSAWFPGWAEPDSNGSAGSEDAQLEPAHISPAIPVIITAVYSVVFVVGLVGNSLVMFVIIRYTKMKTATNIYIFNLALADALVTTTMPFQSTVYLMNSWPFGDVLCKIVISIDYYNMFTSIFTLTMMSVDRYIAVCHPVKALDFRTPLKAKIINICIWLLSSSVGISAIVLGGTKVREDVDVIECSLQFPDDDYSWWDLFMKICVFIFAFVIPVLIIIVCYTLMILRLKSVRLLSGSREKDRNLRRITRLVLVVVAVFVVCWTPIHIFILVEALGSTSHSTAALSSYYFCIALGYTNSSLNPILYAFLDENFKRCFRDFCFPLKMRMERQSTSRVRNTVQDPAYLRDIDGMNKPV
smiles,measurement,setting,value
CC(C)C[C@@H](N)C(=O)Nc1ccc(-c2cnco2)c(OC(F)F)c1,concentration,[1],52 µM
same,IC50,[2],> 30000 nM
same,Activity,[3],21%
same,Activity,Rattus norvegicus [4],90%
same,Activity,Mus musculus [5],Active
same,IC50,[6],1930 nM
same,"remaining at 10 min, 0.5 µM",[7],68%
same,permeability,[8],113 10^-6 cm/s
same,Cp(f),[9],0.01 µM
same,Activity,Rattus norvegicus [10],49%
same,Activity,[11],6.2%
same,Activity,Rattus norvegicus [12],42%
same,concentration at 2 h,[13],18.5 µM
same,inhibition,[14],Active
same,IC50,[15],326 nM
same,IC50,[16],507 nM
same,Activity,Mus musculus [17],Active
same,Activity,[18],8.4%
